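Protocol summary: plate cells (96-well), add compound at 5 concentrations, incubate 48 h, interpolate endpoints linearly. GI50 is the concentration that inhibits growth by half. TGI: total growth inhibition.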
Key:
Assay in all cases: NCI-60 cell line screen, 48 h
[1] = test system: 786-0 renal
[2] = test system: A498 renal
[3] = test system: A549 NSCLC
[4] = test system: ACHN renal
[5] = test system: BT-549 breast
[6] = test system: CAKI-1 renal
[7] = test system: CCRF-CEM leukemia
[8] = test system: COLO 205 colon
[9] = test system: DU-145 prostate
[10] = test system: EKVX NSCLC
[11] = test system: HCC-2998 colon
[12] = test system: HCT-116 colon
[13] = test system: HCT-15 colon
[14] = test system: HL-60(TB) leukemia
[15] = test system: HOP-62 NSCLC
[16] = test system: HOP-92 NSCLC
[17] = test system: HS 578T breast
[18] = test system: HT29 colon
[19] = test system: IGROV1 ovarian
[20] = test system: K-562 leukemia
[21] = test system: KM12 colon
[22] = test system: LOX IMVI melanoma
[23] = test system: M14 melanoma
[24] = test system: MALME-3M melanoma
[25] = test system: MCF7 breast
[26] = test system: MDA-MB-231 breast
[27] = test system: MDA-MB-435
[28] = test system: MOLT-4 leukemia
[29] = test system: NCI-H226 lung
[30] = test system: NCI-H23 lung
[31] = test system: NCI-H460 lung
[32] = test system: NCI-H522 lung
[33] = test system: NCI/ADR-RES ovarian
[34] = test system: OVCAR-3 ovarian
[35] = test system: OVCAR-4 ovarian
[36] = test system: OVCAR-5 ovarian
[37] = test system: OVCAR-8 ovarian
[38] = test system: PC-3 prostate
[39] = test system: RPMI-8226 leukemia
[40] = test system: RXF 393 renal
[41] = test system: SF-268 CNS
[42] = test system: SF-295 CNS
[43] = test system: SF-539 CNS
[44] = test system: SK-MEL-2 melanoma
[45] = test system: SK-MEL-28 melanoma
[46] = test system: SK-MEL-5 melanoma
[47] = test system: SK-OV-3 ovarian
[48] = test system: SN12C renal
[49] = test system: SNB-75 CNS
[50] = test system: SR leukemia
[51] = test system: SW-620 colon
[52] = test system: T-47D breast
[53] = test system: TK-10 renal
[54] = test system: U251 CNS
[55] = test system: UACC-257 melanoma
[56] = test system: UACC-62 melanoma
[57] = test system: UO-31 renal

Oc1c(O)c(Cl)c(Cl)c(Cl)c1Cl
GI50 [1]: 7.98 µM
TGI [1]: 33 µM
GI50 [2]: 2.67 µM
TGI [2]: 8.92 µM
GI50 [3]: 4.2 µM
TGI [3]: 24.1 µM
GI50 [4]: 5.15 µM
TGI [4]: 35.5 µM
GI50 [5]: 4.51 µM
TGI [5]: 31.5 µM
GI50 [6]: 6.33 µM
TGI [6]: 23 µM
GI50 [7]: 2.73 µM
TGI [7]: 27.7 µM
GI50 [8]: 12.5 µM
TGI [8]: 33.7 µM
GI50 [9]: 7.1 µM
TGI [9]: > 100 µM
GI50 [10]: 2.95 µM
TGI [10]: 18.9 µM
GI50 [11]: 16.3 µM
TGI [11]: 30.7 µM
GI50 [12]: 2.88 µM
TGI [12]: 8.75 µM
GI50 [13]: 3.56 µM
TGI [13]: 19.4 µM
GI50 [14]: 1.85 µM
TGI [14]: 7.21 µM
GI50 [15]: 4.54 µM
TGI [15]: 17.3 µM
GI50 [16]: 2.11 µM
TGI [16]: 7.37 µM
GI50 [17]: 3.75 µM
TGI [17]: 23 µM
GI50 [18]: 4.89 µM
TGI [18]: 22.4 µM
GI50 [19]: 3.06 µM
TGI [19]: 10.4 µM
GI50 [20]: 3.49 µM
TGI [20]: > 100 µM
GI50 [21]: 3.96 µM
TGI [21]: 19.7 µM
GI50 [22]: 3.65 µM
TGI [22]: 20.3 µM
GI50 [23]: 3.51 µM
TGI [23]: 15.4 µM
GI50 [24]: 2.83 µM
TGI [24]: 13.4 µM
GI50 [25]: 3.25 µM
TGI [25]: 16.2 µM
GI50 [26]: 5.1 µM
TGI [26]: 38.5 µM
GI50 [27]: 3.42 µM
TGI [27]: 18.1 µM
GI50 [28]: 3.51 µM
TGI [28]: 69.7 µM
GI50 [29]: 4.62 µM
TGI [29]: 24.3 µM
GI50 [30]: 3.04 µM
TGI [30]: 9.28 µM
GI50 [31]: 2.62 µM
TGI [31]: 13.3 µM
GI50 [32]: 1.65 µM
TGI [32]: 4.54 µM
GI50 [33]: 3.01 µM
TGI [33]: 10.3 µM
GI50 [34]: 2.44 µM
TGI [34]: 14.4 µM
GI50 [35]: 2.44 µM
TGI [35]: 8.86 µM
GI50 [36]: 9.62 µM
TGI [36]: 42.5 µM
GI50 [37]: 2.89 µM
TGI [37]: 13.9 µM
GI50 [38]: 3.43 µM
TGI [38]: 18.1 µM
GI50 [39]: 2.23 µM
TGI [39]: 7.38 µM
GI50 [40]: 1.61 µM
TGI [40]: 13.9 µM
GI50 [41]: 3.09 µM
TGI [41]: > 100 µM
GI50 [42]: 3.23 µM
TGI [42]: 12.7 µM
GI50 [43]: 3.72 µM
TGI [43]: 14.7 µM
GI50 [44]: 4.1 µM
TGI [44]: 15.2 µM
GI50 [45]: 4.99 µM
TGI [45]: 37.2 µM
GI50 [46]: 3.37 µM
TGI [46]: 13.4 µM
GI50 [47]: 16 µM
TGI [47]: 44.5 µM
GI50 [48]: 3.79 µM
TGI [48]: 50 µM
GI50 [49]: 2.52 µM
TGI [49]: 21 µM
GI50 [50]: 2.73 µM
TGI [50]: > 100 µM
GI50 [51]: 3.17 µM
TGI [51]: 30.3 µM
GI50 [52]: 3.26 µM
TGI [52]: 11.3 µM
GI50 [53]: 9.42 µM
TGI [53]: 47.7 µM
GI50 [54]: 4.21 µM
TGI [54]: 86.2 µM
GI50 [55]: 2.92 µM
TGI [55]: 9.6 µM
GI50 [56]: 2.95 µM
TGI [56]: 10.2 µM
GI50 [57]: 2.74 µM
TGI [57]: 13.1 µM

Reference: PubChem BioAssay (NCI)
